In EP0604355B1, “Akyl Substituted heterocyclic compounds” (N[…]/S, priority 1992, dated 1994):
Counter-ions that a name gives are not always drawn.

Assays:
[1] = tested on: haloperidol-induced catalepsy; assay: animal or person; details: Rattus norvegicus, read-out: Minimum effective dose (peroral administration)
Excerpt: The principle behind the haloperidol catalepsy test relates to the fact that the drug haloperidol (Serenase®) induces a receptor blockade of post synaptic dopamine receptors within the dopamine innervated corpus striatum of the rat brain. Following the blockade of active dopamine neurotransmission of the striatum a state of rigid immobility is induced, during which the rat can be placed in various totally abnormal immobile postures involving the forelegs and the whole body.
The day before testing, the rats weighing 200-250 g are housed 2 and 2 together in standard macrolon cages.
The testing for the immobile catalepsy syndrome includes 4 tests performed in the following consecutive order: • 1) a vertical wire netting (40x40 cm high).The meshes (openings) of the nettings are approximately 1x2cm. • 2) a horizontal bar 9 cm above the floor • 3) a 9 cm high block (bar) • 4) a 3 cm high block (cork)
The rats were scored for the immobile cataleptic syndrome every 15 min in all 4 tests starting 15 min after the haloperidol injection. The intensity of catalepsy was tested during 10 sec in all tests and evaluated according to a criteria of 10 sec of total immobility for a score of 2.
The rat was placed in the middle of the vertical wire netting, then on the horizontal bar in an extended position with support by both the forelegs on the bar. […]

[2] = molecular target: reuptake of dopamine in synaptosomes of rat forebrain (Rattus norvegicus, UniProt P23977); assay: biochemical
Description: Fresh whole forebrain (at 0-4°C) from male Wistar rats (150-200 g) is homogenized in a glass homogenizer with a Teflon pestle in 20 x volumes 0.32M sucrose. The homogenate is centrifuged at 1000 x g (∼2900 rpm) for 10 min. The pellet is discarded and the supernatant is used for uptake assays.
The samples are thoroughly mixed and incubated 10 min at 37°C followed by 2 min at 0°C. After incubation the samples are poured directly onto Whatman GF/C glass fibre filters under suction and immediately washed with 2 x 5 ml ice-cold 0.9% saline (NaCl) buffer. To the filter is added 3 ml of scintillation fluid, and the amount of radioactivity on the filters is determined by conventional liquid scintillation counting.

[3] = tested on: dopamine releasing properties; assay: dopamine releasing properties (no method described); details: in contrast to Win 35,428 and cocaine

Sequence of reuptake of dopamine in synaptosomes of rat forebrain (P23977 whole entry): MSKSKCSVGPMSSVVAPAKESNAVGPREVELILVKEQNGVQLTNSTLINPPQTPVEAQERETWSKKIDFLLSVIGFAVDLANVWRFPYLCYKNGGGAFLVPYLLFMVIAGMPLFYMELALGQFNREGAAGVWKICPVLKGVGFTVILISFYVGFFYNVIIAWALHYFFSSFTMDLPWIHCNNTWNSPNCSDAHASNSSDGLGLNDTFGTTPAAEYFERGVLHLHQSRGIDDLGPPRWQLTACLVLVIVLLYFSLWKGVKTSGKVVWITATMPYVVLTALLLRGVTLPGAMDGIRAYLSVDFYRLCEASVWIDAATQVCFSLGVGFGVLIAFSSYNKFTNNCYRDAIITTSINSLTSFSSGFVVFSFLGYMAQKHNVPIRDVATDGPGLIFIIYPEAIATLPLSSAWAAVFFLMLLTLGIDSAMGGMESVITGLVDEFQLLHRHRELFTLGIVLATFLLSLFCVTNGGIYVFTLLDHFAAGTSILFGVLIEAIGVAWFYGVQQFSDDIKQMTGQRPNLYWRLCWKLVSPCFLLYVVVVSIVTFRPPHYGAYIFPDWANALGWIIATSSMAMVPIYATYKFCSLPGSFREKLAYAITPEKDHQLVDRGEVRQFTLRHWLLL

| Compound | IC50 [2] [nM] | further results |
| --- | --- | --- |
| Cc1noc([C@@H]2[C@@H](c3ccc(Cl)cc3)C[C@@H]3CC[C@H]2N3C)n1.Cl [(1R,2R,3S)-2-(3-Methyl-1,2,4-oxadiazol-5-yl)-3-(4-chlorophenyl)-tropane, hydrochloride] |  | minimal effective dose [1]: > 1 mg/kg |
| CN1[C@H]2CC[C@@H]1[C@H](c1nc(-c3ccccc3)no1)[C@@H](c1ccc(Cl)cc1)C2 [(1R,2R,3S)-2-(3-Phenyl1,2,4-oxadiazol-5-yl)-3-(4-chlorophenyl)-tropane, hydrochloride] | 330 |  |
| CN1[C@H]2CC[C@@H]1[C@H](c1nc(-c3ccccc3)no1)[C@@H](c1ccc3ccccc3c1)C2 [(1R,2R,3S)-2-(3-Phenyl-1,2,4-oxadiazol-5-yl)-3-(2-naphthyl)tropane, hydrochloride] | 540 |  |
| Cc1ccc([C@H]2C[C@@H]3CC[C@H]([C@@H]2c2nc(-c4ccccc4)no2)N3C)cc1 [(1R,2R,3S)-2-(3-Phenyl-1,2,4-oxadiazol-5-yl)-3-(4-methylphenyl)-tropane, hydrochloride] | 960 |  |
| COC(=O)[C@@H]1[C@@H](c2ccc(F)cc2)C[C@@H]2CC[C@H]1N2C [trans isomer of Win 35,428, (1R,2R,3S)-2-carbomethoxy-3-(4-fluorophenyl)tropane] |  | dopamine releasing properties [3]: essentially free of dopamine releasing properties |
